Assay results published in the supplement of paper PMC10307832.

Assays:
Assay in all cases: relative viability (nuclei count vs DMSO), 5 days (fraction); higher = more cells survive
BMX-IN-1 + Olaparib = compound: C=CC(=O)Nc1cc(-n2c(=O)ccc3cnc4ccc(-c5ccc(NS(C)(=O)=O)cc5)cc4c32)ccc1C [BMX-IN-1] + O=C(c1cc(Cc2n[nH]c(=O)c3ccccc23)ccc1F)N1CCN(C(=O)C2CC2)CC1 [Olaparib] (partner 8 µM)
How it was run: (§1)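 A single step with final 0.05% Triton X-100, 1% formaldehyde and 1 ug/ml Hoechst fixed the cells and stained nuclei 5 days after treatment. Lung cancer cell lines in 1536-well plates had been treated by pin tool the day after seeding with one drug alone or a fixed anchor-drug dose plus five library-drug doses (not always all listed) in √10 steps, and nuclei were counted on 4× images. Relative viability is the ratio of nuclei in treated wells to nuclei in vehicle wells, taken as the median of duplicate plates.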

BMX-IN-1 + Lapatinib = compound: C=CC(=O)Nc1cc(-n2c(=O)ccc3cnc4ccc(-c5ccc(NS(C)(=O)=O)cc5)cc4c32)ccc1C [BMX-IN-1] + CS(=O)(=O)CCNCc1ccc(-c2ccc3ncnc(Nc4ccc(OCc5cccc(F)c5)c(Cl)c4)c3c2)o1 [Lapatinib] (partner 2 µM)
How it was run: as §1

BMX-IN-1 + Pictilisib = compound: C=CC(=O)Nc1cc(-n2c(=O)ccc3cnc4ccc(-c5ccc(NS(C)(=O)=O)cc5)cc4c32)ccc1C [BMX-IN-1] + CS(=O)(=O)N1CCN(Cc2cc3nc(-c4cccc5[nH]ncc45)nc(N4CCOCC4)c3s2)CC1 [Pictilisib] (partner 1 µM)
How it was run: as §1

Ibrutinib + Pictilisib = compound: C=CC(=O)N1CCC[C@@H](n2nc(-c3ccc(Oc4ccccc4)cc3)c3c(N)ncnc32)C1 [Ibrutinib] + CS(=O)(=O)N1CCN(Cc2cc3nc(-c4cccc5[nH]ncc45)nc(N4CCOCC4)c3s2)CC1 [Pictilisib] (partner 1 µM)
How it was run: as §1

Row | Cell Line | relative viability (BMX-IN-1 + Olaparib; first compound 0.02 µM) | relative viability (BMX-IN-1 + Olaparib; first compound 0.2 µM) | relative viability (BMX-IN-1 + Olaparib; first compound 0.6325 µM) | relative viability (BMX-IN-1 + Olaparib; first compound 2 µM) | relative viability (BMX-IN-1 + Lapatinib; first compound 0.02 µM) | relative viability (BMX-IN-1 + Lapatinib; first compound 0.2 µM) | relative viability (BMX-IN-1 + Lapatinib; first compound 0.6325 µM) | relative viability (BMX-IN-1 + Lapatinib; first compound 2 µM) | relative viability (BMX-IN-1 + Pictilisib; first compound 0.02 µM) | relative viability (BMX-IN-1 + Pictilisib; first compound 0.2 µM) | relative viability (BMX-IN-1 + Pictilisib; first compound 0.6325 µM) | relative viability (BMX-IN-1 + Pictilisib; first compound 2 µM) | relative viability (Ibrutinib + Pictilisib; first compound 0.01581 µM) | relative viability (Ibrutinib + Pictilisib; first compound 0.05 µM) | relative viability (Ibrutinib + Pictilisib; first compound 0.1581 µM) | relative viability (Ibrutinib + Pictilisib; first compound 0.5 µM) | relative viability (Ibrutinib + Pictilisib; first compound 0.005 µM)
1 | HCC-366 | 0.416 | 0.406 | 0.442 | 0.361 | 1.53 | 1.65 | 1.07 | 1.12 | 0.124 | 0.666 | 0.137 | 0.16 | 0.125 | 0.141 | 0.124 | 0.14 | 
2 | HCC-827 | 0.597 | 0.635 | 0.652 | 0.629 | 0.189 | 0.203 | 0.193 | 0.206 | 1.03 | 1.15 | 1.04 | 1.05 | 0.909 | 1.02 | 1.08 | 0.458 | 0.916
3 | HOP-62 | 0.403 | 0.485 | 0.33 | 0.379 | 1.05 | 1.16 | 0.955 | 1.04 | 0.639 | 0.761 | 0.929 | 0.688 | 0.506 | 0.67 | 0.626 | 0.877 | 0.379
4 | IA-LM | 0.871 | 0.843 | 0.938 | 0.94 | 0.925 | 0.902 | 0.994 | 0.867 | 0.337 | 0.403 | 0.427 | 0.386 | 0.231 | 0.312 | 0.411 | 0.22 | 0.203
5 | LC-2-ad | 0.829 | 0.848 | 0.674 | 0.733 | 1.12 | 1.12 | 1.09 | 1.05 | 0.645 | 0.555 | 0.619 | 0.482 | 0.19 | 0.53 | 0.525 | 0.299 | 0.335
6 | LCLC-97TM1 | 0.383 | 0.597 | 0.413 | 0.367 | 0.862 | 1.24 | 1.41 | 0.816 | 0.189 | 0.197 | 0.274 | 0.207 | 0.203 | 0.263 | 0.156 | 0.18 | 0.114
7 | LCLC-103H | 0.883 | 0.886 | 0.834 | 0.741 |  |  |  |  | 0.636 | 0.612 | 0.684 | 0.609 | 0.535 | 0.557 | 0.517 | 0.653 | 0.72
8 | LK-2 | 0.799 | 0.69 | 0.775 | 0.902 | 1.1 | 1.37 | 0.68 | 0.924 | 0.8 | 0.696 | 0.543 | 0.59 | 0.472 | 0.532 | 0.494 | 0.488 | 
9 | LOU-NH91 |  | 0.978 | 0.946 | 0.862 |  | 0.792 | 0.819 | 0.819 |  | 0.509 | 0.546 | 0.512 | 0.475 | 0.512 | 0.487 | 0.487 | 0.451
10 | LU99A | 0.25 | 0.259 | 0.265 | 0.229 | 1.15 | 1.04 | 0.981 | 0.913 | 0.309 | 0.382 | 0.39 | 0.301 | 0.34 | 0.355 | 0.324 | 0.336 | 0.274
11 | LXF-289 | 1.32 | 1.19 | 1.12 | 1.14 | 0.982 | 1.01 | 0.957 | 0.983 | 0.808 | 0.863 | 0.88 | 0.761 | 0.724 | 0.802 | 0.794 | 0.758 | 0.733
12 | NCI-H23 | 0.304 | 0.415 | 0.312 | 0.229 | 1.04 | 1.24 | 1.01 | 1 | 0.483 | 0.495 | 0.582 | 0.411 | 0.458 | 0.562 | 0.391 | 0.395 | 0.319
13 | NCI-H322M | 0.781 | 0.836 | 0.77 | 0.72 | 0.626 | 0.591 | 0.563 | 0.578 | 0.558 | 0.505 | 0.532 | 0.583 | 0.562 | 0.597 | 0.374 | 0.467 | 0.431
14 | NCI-H358 | 0.634 | 0.743 | 0.71 | 0.548 | 0.48 | 0.431 | 0.4 | 0.412 | 0.387 | 0.313 | 0.393 | 0.336 | 0.372 | 0.291 | 0.315 | 0.264 | 0.28
15 | NCI-H441 | 0.52 | 0.658 | 0.619 | 0.591 |  |  |  |  | 0.461 | 0.618 | 0.491 | 0.606 | 0.551 | 0.619 | 0.435 | 0.449 | 0.586
16 | NCI-H460 | 0.481 | 0.475 | 0.445 | 0.439 |  | 1.36 | 1.75 | 1.1 | 0.376 | 0.511 | 0.371 | 0.501 | 0.365 | 0.313 | 0.19 | 0.256 | 0.331
17 | NCI-H520 | 0.323 | 0.368 | 0.301 | 0.273 | 1.04 | 0.903 | 1.05 | 0.838 | 0.376 | 0.299 | 0.304 | 0.278 | 0.262 | 0.258 | 0.183 | 0.254 | 0.25
18 | NCI-H522 | 0.656 | 0.689 | 0.66 | 0.601 |  |  |  |  |  |  |  |  |  |  |  |  | 
19 | NCI-H1563 |  |  |  |  | 0.837 | 0.86 | 0.903 | 0.824 | 0.601 | 0.629 | 0.655 | 0.684 | 0.635 | 0.677 | 0.607 | 0.602 | 0.663
20 | NCI-H1648 | 0.994 | 0.849 | 0.958 | 0.925 |  |  |  |  |  |  |  |  |  |  |  |  | 
21 | NCI-H2342 | 0.44 | 0.446 | 0.473 | 0.43 |  |  |  |  |  |  |  |  |  |  |  |  | 
22 | SW 900 | 1.15 | 0.938 | 0.819 | 0.782 |  |  |  |  |  |  |  |  |  |  |  |  | 
